Measurements taken from patent publication US7332486B2, “Phosphodiesterase 4 inhibitors” (Memory Pharmaceuticals Corp., priority 2002, dated 2008).
Counter-ions that a name gives are not always drawn.

Assays:
[1] = Solubility of the mesylate salt in H2O; type: physicochemical
Protocol: To obtain the methansulphonate salt (mesylate salt), 4 ml of 0.1N CH3SO3H in EtOAc was added to a solution of 145 mg (0.4 mmol) 6-cyclopropylamino-9-(2-fluorobenzyl)-2-trifluoromethylpurine in EtOAc. Then, 1 ml of hexane was added to a warm solution and the resultant mixture was allowed to crystallize (within a refrigerator). The solid was collected to give 148 mg of the mesylate salt. […] M.p. 167.5-169.0 C; m.p. 114-118 C for free base.

rats [2] = test: Passive avoidance in rats, an in vivo test for learning and memory; set-up: species or system rat; conditions: MK-801 0.1 mg/kg pretreatment, compared to the vehicle, p<0.001, 24 hours after electric shock
Protocol: The test was performed as previously described (Zhang, H.-T., Crissman, A. M., Dorairaj, N. R., Chandler, L. J., and O'Donnell, J. M., Neuropsychopharmacology, 2000, 23, 198-204.). The apparatus (Model E10-16SC, Coulbourn Instruments, Allentown, Pa.) consisted of a two-compartment chamber with an illuminated compartment connected to a darkened compartment by a guillotine door. The floor of the darkened compartment consisted of stainless steel rods through which an electric foot-shock could be delivered from a constant current source. All experimental groups were first habituated to the apparatus the day before the start of the experiment. During the training, the rat (Male Spraque-Dawley (Harlan) weighing 250 to 350 g) was placed in the illuminated compartment facing away from the closed guillotine door for 1 minute before the door was raised. The latency for entering the darkened compartment was recorded. After the rat entered the darkened compartment, the door was closed and a 0.5 mA electric shock was administered for 3 seconds. […] The latency for entering the darkened compartment was recorded for up to 180 seconds, at which time the trial was terminated.
(§1) All data were analyzed by analyses of variance (ANOVA); individual comparisons were made using Kewman-Keuls tests. […]

rats [3] = test: Radial arm maze task in rats, an in vivo test for learning and memory; set-up: species or system rat; conditions: MK-801 0.1 mg/kg, i.p., compared to control, p<0.01
Protocol: The test was performed as previously described (Zhang, H.-T., Crissman, A. M., Dorairaj, N. R., Chandler, L. J., and O'Donnell, J. M., Neuropsychopharmacology, 2000, 23, 198-204.). Five days after initial housing, rats (male Spraque-Dawley (Harlan) weighing 250 to 350 g) were placed in the eight-arm radial maze (each arm was 60×10×12 cm high; the maze was elevated 70 cm above the floor) for acclimation for two days. Rats were then placed individually in the center of the maze for 5 minutes with food pellets placed close to the food wells, and then, the next day, in the wells at the end of the arms; 2 sessions a day were conducted. Next, four randomly selected arms were then baited with one pellet of food each. The rat was restricted to the center platform (26 cm in diameter) for 15 seconds and then allowed to move freely throughout the maze until it collected all pellets of food or 10 minutes passed, whichever came first. Four parameters were recorded: 1) working memory errors, i.e., entries into baited arms that had already been visited during the same trial; 2) reference memory errors, i.e., entries into unbaited arms; 3) total arm entries; and 4) the test duration (seconds), i.e., the time spent in the collection of all the pellets in the maze. […]
as §1

SMILES | solubility in H2O [1] | latency for entering the darkened compartment (retention test) (rats [2]) | frequency of reference memory errors (rats [3]) | frequency of working memory errors (rats [3])
Fc1ccccc1Cn1cnc2c(NC3CC3)nc(C(F)(F)F)nc21 [Example 4 mesylate salt, 6-cyclopropylamino-9-(2-fluorobenzyl)-2-trifluoromethylpurine] | relatively insoluble | – | – | –
C[C@]12N[C@H](Cc3ccccc31)c1ccccc12 [MK-801] | – | markedly reduced | increased | increased
